By Km is commonly meant the substrate concentration at which the rate is half of its maximum.

The values below come from PMC5479551, “Development of a range of fluorescent reagentless biosensors for ATP, based on malonyl-coenzyme A synthetase” (PLoS ONE, 2017).

One assay has as its target T1, pyruvate kinase (Oryctolagus cuniculus, UniProt P11974).
T1 construct: pyruvate kinase (rabbit muscle from Sigma); purchased Sigma; host or cells: rabbit muscle (tissue-derived)
Briefly: Steady-state pyruvate kinase assay using T303A variant ATP biosensor. The class given is biochemical, rabbit. The conditions noted are these: 50 mM HEPES pH 7.2, 100 mM KCl, 10 mM MgCl2, 25°C; 500 μM phosphoenolpyruvate; 1 μM T303A rho-MatB as ATP sensor; read-out: Km for ADP. Here is the method:
Steady-state activity measurements of pyruvate kinase (rabbit muscle from Sigma) were obtained using fluorescence on a CLARIOstar microplate reader (BMG Labtech). Assays were set up in 100 μl or 40 μl using 96-well using 384-well polystyrene microplates (low-protein-binding, Corning, USA) respectively.
We show one type of steady-state assay using a weak-binding variant, namely T303A, and a well understood enzyme system. This variant was used to measure the Km for ADP with pyruvate kinase (Fig 7). This measurement would not have been possible with the original reagent, as it requires measurements with hundreds of micromolar ADP. The assay measured formation of ATP as a function of time and made use of calibrations of the fluorescence signal at 0 and 500 μM ADP.
Fig 7 Test assay, measurement of the Km of ADP with pyruvate kinase using T303A variant ATP biosensor. The assay was run in multiwell format in 50 mM HEPES buffer pH 7.2, 100 mM KCl, 10 mM MgCl2, 0.3 mg ml^-1 bovine serum albumin at 25°C. The assay components were 500 μM phosphoenolpyruvate, 0.005 unit ml^-1 pyruvate kinase, 1 μM T303A rho-MatB and the micromolar concentrations of ADP shown on the inset panel for an illustrative set of traces. The data are shown as ATP production rates, using calibrations done at 0–20 μM ATP at 0 μM ADP and with ADP to make 500 μM total nucleotide concentration. […]

The target in the next assay is T2, Parent (Rho-MatB) (Rhodopseudomonas palustris, UniProt Q6ND88, C106A/K488A/Q457C/R286C).
T2 construct: N-terminal His6-tag, expressed in E. coli; two tetramethylrhodamines (5-IATR) on introduced cysteines
T2 sequence (Q6ND88 entry or part of it C106A/R286C/Q457C/K488A): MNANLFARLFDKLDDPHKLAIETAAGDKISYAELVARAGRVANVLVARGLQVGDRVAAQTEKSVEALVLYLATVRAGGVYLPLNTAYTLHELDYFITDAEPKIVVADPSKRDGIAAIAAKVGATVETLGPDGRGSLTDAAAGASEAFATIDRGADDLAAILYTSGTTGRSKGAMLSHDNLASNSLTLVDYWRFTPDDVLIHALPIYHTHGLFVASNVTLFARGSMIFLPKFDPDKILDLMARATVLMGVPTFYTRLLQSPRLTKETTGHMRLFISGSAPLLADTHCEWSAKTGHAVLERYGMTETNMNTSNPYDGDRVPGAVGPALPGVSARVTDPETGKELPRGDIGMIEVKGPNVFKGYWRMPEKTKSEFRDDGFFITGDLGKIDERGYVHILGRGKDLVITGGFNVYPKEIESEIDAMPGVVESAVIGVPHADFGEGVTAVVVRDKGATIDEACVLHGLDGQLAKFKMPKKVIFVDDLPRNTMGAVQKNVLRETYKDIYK
Put plainly: Competition fluorescence titration of ATP into 0.5 µM parent Rho-MatB at fixed AMP (500 or 1000 µM) in 50 mM Hepes pH 7.0, 100 mM NaCl, 10 mM MgCl2, 0.3 mg/ml BSA, 20°C. The class given is binding. The conditions noted are these: read-out: KAMP (ATP titrated at fixed AMP). Here is the method:
Fig 6 Competition titrations between ATP and AMP binding to Rho-MatB variants. Titrations were under conditions as Fig 2, using 0.5 μM of the Rho-MatB variant. (A) Titration of AMP into Rho-MatB complex with a fixed concentration of ATP: 7 μM for the parent Rho-MatB (“wt”) and S170A, 50 μM for T303A and 150 μM for T167A. One representative data set is shown. Fluorescence changes were fit to A0[ATP]/(K' +[ATP]), where the apparent dissociation constant for ATP, K' = KATP(1 + [AMP]/KAMP). KATP and KAMP are the actual dissociation constants for ATP and AMP and A0 is the total fluorescence change at that ATP concentration. Taking the previously obtained values for KATP, the values of KAMP were 169 ± 23 μM for the parent Rho-MatB, 225 ± 15 μM for S170A, and 300 ± 12 μM for T167A. […] Data were fitted to the equation above, giving KAMP as 233 ± 11 μM using 500 μM AMP and 255 ± 16 μM at 1000 μM AMP.
Doing the competition titration the other way round, fixing AMP, caused a shift in apparent dissociation constant of ATP. […] Alternatively, fitting the data as described in Fig 6 gave values for the AMP dissociation constant that were similar to those in Fig 6A. The amplitude of the signal changes only little with AMP, but the range of ATP concentrations over the maximal signal change, is increased as AMP increases

Values joined by “and” are separate entries in the source; they are usually repeats but may differ in a detail not shown here. Equal values may be shown once.

T1 sequence (P11974 whole entry): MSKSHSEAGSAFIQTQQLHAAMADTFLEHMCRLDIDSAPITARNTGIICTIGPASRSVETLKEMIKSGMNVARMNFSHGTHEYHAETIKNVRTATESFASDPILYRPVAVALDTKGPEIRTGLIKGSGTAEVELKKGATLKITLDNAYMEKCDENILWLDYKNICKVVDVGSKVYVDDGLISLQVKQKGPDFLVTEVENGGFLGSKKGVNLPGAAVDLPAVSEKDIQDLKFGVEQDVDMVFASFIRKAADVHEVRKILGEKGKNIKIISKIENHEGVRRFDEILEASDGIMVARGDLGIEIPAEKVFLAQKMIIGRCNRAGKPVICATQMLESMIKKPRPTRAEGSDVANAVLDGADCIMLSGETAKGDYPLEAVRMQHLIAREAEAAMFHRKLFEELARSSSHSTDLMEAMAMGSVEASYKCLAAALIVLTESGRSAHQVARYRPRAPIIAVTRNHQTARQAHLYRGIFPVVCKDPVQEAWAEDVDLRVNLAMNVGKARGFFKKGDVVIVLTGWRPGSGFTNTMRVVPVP

For `Nc1ncnc2c1ncn2[C@@H]1O[C@H](COP(=O)(O)OP(=O)(O)O)[C@@H](O)[C@H]1O` [ADP], the Km on pyruvate kinase was 56 ± 4 µM.
With `Nc1ncnc2c1ncn2[C@@H]1O[C@H](COP(=O)(O)O)[C@@H](O)[C@H]1O` [AMP, adenosine 5'-monophosphate], the Kd on Parent (Rho-MatB) was 233 µM and 255 µM.
